One block for each compound: values may come before it.
Assays:
[1] = tested on: β-D-glucosidase in the stratum corneum; assay: enzymatic test of stratum corneum glycosidases with PNP chromogenic substrate: β-glucosidase; format: biochemical; conditions: for stimulation of β-D-glucosidase activity: different concentrations, FIG. 2
Description: (§1) In order to determine the nature and importance of the barrier effect of a carbohydrate derivative in accordance with the invention, the influence of O-octanoyl-6′-maltose on glycosidase activity was studied using the following enzymatic test: The assay was carried out in a 96 well plate. A mixture comprising the following was produced: 75μl of a 10 mM solution of specific chromogenic substrate coupled to paranitrophenol (PNP); 10 μl of 700 mM citrate buffer/200 mM sodium phosphate, pH 4.5; 55 μl of a 0.5 M solution of O-octanoyl-6′-maltose [α-D-glucopyannosyl-1-4-D-glucopyranose]; 40 μl of a solution of soluble glycosidases from the stratum corneum. This solution was obtained simply by scratching the forearm into a 70 mM sodium citrate buffer, pH 4.5 containing 1% of Tween 20 and eliminating cell debris by sequential filtering through a membrane with a pore size of 0.45 and of 0.22 μm. The measurements were carried out by quantifying the yellow coloration after incubation at 37° C. for a period in the range 1h30 and 48 hours.

[2] = tested on: other glycosidases of the stratum corneum; assay: enzymatic test of stratum corneum glycosidases with PNP chromogenic substrate: other glycosidases; format: biochemical; conditions: FIG. 1; activity relative to value without compound; pH 4.5, 37° C.
Description: as §1

[3] = tested on: thermostable recombinant glycosidases (Clonezyme); assay: effect on thermostable recombinant glycosidases sold by Clonezyme; format: biochemical; conditions: FIG. 3; increasing concentrations; 7 glycosidases tested
Description: O-octanoyl-6′-maltose was also tested for its effect on glycosidases sold by Clonezyme.

GLY-04 = tested on: GLY-04; parameters: key: −: no activity; ε, +, ++: specific activity; ε, +, ++: specific activity; ε, +, ++: specific activity; conditions: glycosidase sold by Clonezyme; cited from earlier work
GLY-06 = tested on: GLY-06; parameters: key: −: no activity; ε, +, ++: specific activity; ε, +, ++: specific activity; ε, +, ++: specific activity; conditions: glycosidase sold by Clonezyme; cited from earlier work
GLY-07 = tested on: GLY-07; parameters: key: −: no activity; ε, +, ++: specific activity; ε, +, ++: specific activity; ε, +, ++: specific activity; conditions: glycosidase sold by Clonezyme; cited from earlier work
GLY-01 = tested on: GLY-01; parameters: key: −: no activity; ε, +, ++: specific activity; ε, +, ++: specific activity; ε, +, ++: specific activity; conditions: glycosidase sold by Clonezyme; cited from earlier work
GLY-03 = tested on: GLY-03; parameters: key: −: no activity; ε, +, ++: specific activity; ε, +, ++: specific activity; ε, +, ++: specific activity; conditions: glycosidase sold by Clonezyme; cited from earlier work
GLY-09 = tested on: GLY-09; parameters: key: −: no activity; ε, +, ++: specific activity; ε, +, ++: specific activity; ε, +, ++: specific activity; conditions: glycosidase sold by Clonezyme; cited from earlier work
GLY-02 = tested on: GLY-02; parameters: key: −: no activity; ε, +, ++: specific activity; ε, +, ++: specific activity; ε, +, ++: specific activity; conditions: glycosidase sold by Clonezyme; cited from earlier work
GLY-10 = tested on: GLY-10; parameters: key: −: no activity; ε, +, ++: specific activity; ε, +, ++: specific activity; ε, +, ++: specific activity; conditions: glycosidase sold by Clonezyme; cited from earlier work
GLY-08 = tested on: GLY-08; parameters: key: −: no activity; ε, +, ++: specific activity; ε, +, ++: specific activity; ε, +, ++: specific activity; conditions: glycosidase sold by Clonezyme; cited from earlier work
GLY-05 = tested on: GLY-05; parameters: key: −: no activity; ε, +, ++: specific activity; ε, +, ++: specific activity; ε, +, ++: specific activity; conditions: glycosidase sold by Clonezyme; cited from earlier work

SMILES: CCCCCCCC(=O)OCC1OC(O)C(O)C(O)C1O [O-octanoyl-6-D-glucose]
- stimulation of β-D-glucosidase activity [1]: a certain stimulation of activity, albeit small

- effect on recombinant glycosidases, first group of enzymes [3]: insensitive
- effect on recombinant glycosidases, second group of enzymes [3]: inhibited
- stimulation of recombinant glycosidases, third group of enzymes, of their base activity [3]: up to 400%
- concentration giving maximum stimulation of β-D-glucosidase activity ([1]; increasing product concentrations, about 40 mM (1%)): about 40 mM
SMILES: CCCCCCCC(=O)OC[C@H]1O[C@H](O[C@H]2[C@H](O)[C@@H](O)C(O)O[C@@H]2CO)[C@H](O)[C@@H](O)[C@@H]1O (stereo partly drawn) [O-octanoyl-6′-maltose, O-octanoyl-6′-maltose [α-D-glucopyranosyl-1-4-D-glucopyranose]]
- effect on the other glycosidases of the stratum corneum [2]: either indifferent to the presence of O-octanoyl-6′-maltose or very slightly inhibited
- effect on β-glucosidase activity of the stratum corneum ([1]; FIG. 1, activity relative to value without compound, pH 4.5, 37° C.): only β-glucosidase had kinetics influenced

SMILES: OC[C@H]1O[C@H](O[C@H]2[C@H](O)[C@@H](O)[C@H](O)O[C@@H]2CO)[C@H](O)[C@@H](O)[C@@H]1O [maltose]
- stimulation of β-D-glucosidase activity [1]: Neither maltose alone nor glucose alone could stimulate β-D-glucosidase activity

SMILES: CC(=O)NC1C(Oc2ccc([N+](=O)[O-])cc2)OC(CO)C(O)C1O [β-N-acetyl-D-glucosaminide]
- substrate specificity GLY-04 (GLY-04): −
- substrate specificity GLY-06 (GLY-06): −
- substrate specificity GLY-07 (GLY-07): −
- substrate specificity GLY-01 (GLY-01): −
- substrate specificity GLY-03 (GLY-03): −
- substrate specificity GLY-09 (GLY-09): −
- substrate specificity GLY-02 (GLY-02): −
- substrate specificity GLY-10 (GLY-10): −
- substrate specificity GLY-08 (GLY-08): −
- substrate specificity GLY-05 (GLY-05): −

Source: patent publication US20040062739A1, “Use of carbohydrates to improve skin barrier function” (SOCIETE L'OREAL S.A., priority 2000, published 2004)
